Test results taken from PubChem BioAssay (NCI).
Several values for one entry are separate records, joined by “and”; a condition that tells them apart may be missing. Equal entries are not always repeated.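 Interpolation was linear, between the two tested concentrations surrounding the appropriate level; five concentrations were tested over 48 hours in 96-well plates. GI50: concentration for 50% inhibition of growth. TGI marks complete inhibition of growth.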

Key:
Assay in all cases: growth of human tumour cells (NCI), 48 h
[1] = tested on: RXF-631 renal
[2] = tested on: DMS 273 small cell lung
[3] = tested on: SNB-78 CNS
[4] = tested on: M19-MEL melanoma
[5] = tested on: KM20L2 colon
[6] = tested on: DLD-1 colon
[7] = tested on: LXFL 529 NSCLC
[8] = tested on: PC-3 prostate
[9] = tested on: MDA-N

Compound	TGI [1]	TGI [2] [µM]	TGI [3]	TGI [4] [µM]	TGI [5] [µM]	TGI [6] [µM]	TGI [7] [µM]	GI50 [8] [µM]	TGI [8] [µM]	other results
C#CCNC(=O)NCCCCC(NC(=O)OCc1ccccc1)C(=O)OCc1ccccc1 (centres undefined)	> 100 µM	> 100	> 100 µM	> 100	> 100	> 100	> 100	–	–	–
C=C/C(C)=C/C[C@]1(C)[C@H](C)[C@@H](OC(=O)CCC)[C@H](O)[C@@]23C(=C[C@H](OC)C[C@@H]12)[C@@H](OC(=O)CCC)O[C@H]3OC(C)=O	–	–	–	–	–	–	–	0.511	2.31	–
O=S1(=O)N(Cc2ccccc2)[C@@H](Cc2ccccc2)[C@H](O)[C@H](O)[C@H](Cc2ccccc2)N1Cc1ccccc1	–	–	–	–	–	–	–	3.48	10.4	–
O=C(Nc1ccc(F)cc1F)c1cc(Cl)ccc1O	–	–	–	–	–	–	–	1.88	41.2	–
NS(=O)(=O)c1ccc(N2N=C3c4ccccc4CC3C2c2cccs2)cc1 (centres undefined)	–	–	–	–	–	–	–	22.1	59.5	–
O=C(O)/C=C\C(=O)Nc1ccccn1	–	–	–	–	–	–	–	–	> 100	TGI [9]: > 100 µM
C1=C/COCc2cc(ccc2OCCN2CCCC2)Nc2nccc(n2)-c2ccc(o2)COC/1	–	–	–	–	–	–	–	1.17	21.4	–
O=c1nc(-c2ccccc2)cc(CC(O)c2ccc(Cl)c(Cl)c2)[nH]1 (centres undefined)	–	> 100	–	> 100	> 100	> 100	> 100	–	–	–
COC(=O)C1=C(CS(=O)c2ccc([N+](=O)[O-])cc2[N+](=O)[O-])C2C=CC1C2 (centres undefined)	32.7 µM	43	> 100 µM	64.2	57.8	37.6	56.9	–	–	–
CCc1cccc(C)c1N1C(=O)C(=O)C(c2nc3ccccc3o2)C(=O)C1=O	–	> 100	> 100 µM	> 100	> 100	> 100	> 100	–	–	–
N/C(=N\NS(=O)(=O)c1ccccc1)Oc1ccc(Br)cc1Br	> 100 µM	> 100	> 100 µM	> 100	> 100	> 100	> 100	–	–	–
CC1(c2cc3c(cc2Br)OCO3)SCCCS1	> 100 µM	> 100	> 100 µM	> 100	> 100	> 100	> 100	–	–	–
O=C(/C=C/c1ccc(C(F)(F)F)cc1)Nc1ccc(C=C2c3ccccc3C(=O)c3ccccc32)cc1	–	–	–	–	–	–	–	1.84	> 100	–
CCc1ccccc1NC(=O)/C=C/c1ccccc1	–	–	–	–	–	–	–	–	> 100	TGI [9]: > 100 µM
CCOc1ccc(/C(C=O)=C(\Cl)c2ccc(OC)cc2)cc1	–	> 100	> 100 µM	> 100	> 100	> 100	> 100	–	–	–
COC(=O)CCC12CCC(=O)C1[C@@H](C(=O)OC)C[C@H]2C(=O)OC (some centres undefined)	> 100 µM	> 100	> 100 µM	> 100	> 100	> 100	> 100	–	–	–
COc1ccc(C(=O)c2cc3c(N)c(C(=O)Nc4ccccc4)sc3nc2C)cc1	–	–	–	–	–	–	–	2.77	> 100	–

Compound	TGI [1]	TGI [2] [µM]	TGI [3]	TGI [4] [µM]	TGI [5] [µM]	TGI [6] [µM]	TGI [7] [µM]	GI50 [8] [µM]	TGI [8] [µM]	other results
Cc1ccc(Oc2ccccc2N)cc1	> 100 µM	> 100	> 100 µM	–	30.4	> 100	> 100	–	–	–
C#CCNC(=S)N/N=C(\C)c1ccccn1	–	–	–	–	–	–	–	0.393	> 100	–
NC(=O)[C@@H](CC1CC1)[C@@H](CCC(F)(F)F)C(=O)N[C@H]1N=C(c2ccccc2)c2cccc(F)c2NC1=O	–	–	–	–	–	–	–	69	> 100	–
C[Si](C)(C)C(CCCCSc1ccccc1)(Sc1ccccc1)Sc1ccccc1	> 100 µM	> 100	> 100 µM	> 100	–	> 100	> 100	–	–	–
CCc1cccc(C)c1NC(=O)CCc1nnc2s/c(=C\c3cccc4ccccc34)c(=O)n12	> 100 µM	> 100	> 100 µM	> 100	> 100	> 100	> 100	–	–	–
Cc1c(C(=O)/C=C/C=C/c2ccccc2)[n+](=O)c2ccccc2n1[O-]	–	> 100	> 100 µM	> 100	> 100	29	51.2	–	–	–
CC[C@@]1(OC(=O)CN)C(=O)OCc2c1cc1n(c2=O)Cc2c-1nc1cc3c(cc1c2CCl)OCO3	–	–	–	–	–	–	–	0.113	21.1	GI50 [9]: 0.0885 µM; TGI [9]: 0.645 µM
CC(C)(O)/C=C/C(=O)[C@](C)(O)[C@H]1[C@H](O)C[C@@]2(C)[C@@H]3CC=C4[C@@H](C[C@H](O)C(=O)C4(C)C)[C@]3(C)C(=O)C[C@]12C	0.549 µM and 1.97 µM	0.543	0.92 µM and 1.67 µM	20.7	–	8.08	4.09	–	–	GI50 [1]: 0.116 µM and 0.34 µM; GI50 [2]: 0.108 µM; GI50 [3]: 0.203 µM; GI50 [4]: 0.0781 µM; GI50 [5]: 0.0872 µM; GI50 [6]: 0.119 µM; GI50 [7]: 0.0484 µM
O=C1C2=C(C(=O)c3cnccc31)C1C=CC2CC1 (centres undefined)	–	–	–	–	–	–	–	2.15	–	–
[O-][N+]1(CC[N+]2([O-])CCCCC2)CCCCC1	–	–	–	–	–	–	–	–	> 100	TGI [9]: > 100 µM
c1cc(-c2nnc(SSc3ncnc4nc[nH]c34)o2)ccn1	–	–	–	–	–	–	–	3.48	> 100	–
CN1CCN(Cc2ccc(NC(=O)c3cncc(C#Cc4cnc(N)cc4C#N)c3)cc2C(F)(F)F)CC1	–	–	–	–	–	–	–	3.5	19	–
Clc1cccc(N2CCN(CCCN3CCc4c([nH]c5ccccc45)C3c3cccnc3)CC2)c1 (centres undefined)	> 100 µM	27.9	9.39 µM	23.4	18.8	27	24.4	–	–	GI50 [1]: 19.5 µM; GI50 [2]: 12.6 µM; GI50 [3]: 2.88 µM; GI50 [7]: 11.3 µM
CN(C)c1ccc(/C=C2\N=C(c3ccccc3)N(c3cc(C(F)(F)F)ccc3Cl)C2=O)cc1	–	–	–	–	–	–	–	> 100	> 100	–
COC(=O)C1C(=O)CC2CCCCC21 (centres undefined)	–	> 100	> 100 µM	> 100	> 100	> 100	> 100	–	–	–
COc1ccc(NC(=O)/C=C(C)/C=C/C=C(C)/C=C/C2=C(C)CCCC2(C)C)cc1	–	–	–	–	–	–	–	3.18	11.8	–
